From patent US9902703B2, “Somatostatin modulators and uses thereof” (Crinetics Pharmaceuticals, Inc., priority 2015, dated 2018) come the findings set out here.

Each structure is given as a SMILES string.

T1 sequence (P30874 whole entry): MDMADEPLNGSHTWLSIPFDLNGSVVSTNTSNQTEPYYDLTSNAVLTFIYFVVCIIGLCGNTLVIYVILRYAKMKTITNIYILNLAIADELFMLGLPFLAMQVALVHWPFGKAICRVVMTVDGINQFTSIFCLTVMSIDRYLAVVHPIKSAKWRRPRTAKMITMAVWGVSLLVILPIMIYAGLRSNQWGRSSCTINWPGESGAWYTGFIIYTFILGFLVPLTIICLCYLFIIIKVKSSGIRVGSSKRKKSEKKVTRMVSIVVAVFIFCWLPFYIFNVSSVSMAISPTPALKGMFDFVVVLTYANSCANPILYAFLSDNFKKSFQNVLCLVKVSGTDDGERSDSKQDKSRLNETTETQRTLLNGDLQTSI

The assay addresses T1, human somatostatin receptor subtype 2 (Homo sapiens, UniProt P30874).
T1 construct: expressed in transfected cells; host or cells: CHO (Chinese hamster ovary) cells, G-418 selected
Kind of assay: cAMP assay (functional assay for SSTR2 agonists). It is filed as cell-based. Conditions: CHO cells expressing human SSTR2; intracellular cAMP with forskolin, HTRF; read-out: SSTR2a EC50. From the text: Functional Assay for SSTR2 Agonists
General overview: All five SSTR subtypes are Gi coupled G-protein coupled receptors (GPCRs) that lead to decreases in intracellular cyclic AMP (cAMP) when activated by an agonist. Therefore, measurement of intracellular cAMP levels can be used to assess whether compounds of the invention are agonists of SSTR subtypes (John Kelly, Troy Stevens, W. Joseph Thompson, and Roland Seifert, Current Protocols in Pharmacology, 2005, 2.2.1-2.2). One example of an intracellular cAMP assay is described below.
One day prior to the assay, 40,000 Chinese hamster ovary (CHO) cells expressing the human somatostatin receptor subtype 2 are plated in each well of a 96-well tissue culture plate in DM-MEM growth media (Gibco) with the following additives: 10% fetal bovine serum (Gibco), 100 U/mL penicillin (Gibco), 100 ug/mL streptomycin (Gibco), 10 mM HEPES (Gibco), 1.2 mM sodium hydroxide, 0.5 mg/mL G-418 (Gibco)). The cells are cultured overnight at 37° C., 5% CO2 and 95% humidity. On the day of the assay, the media is aspirated and the cells are washed with 1× Dulbecco's phosphate buffered saline (Gibco). Next, 5 μL of assay buffer (1× Earle's Balanced Salt Solution (Gibco), 5 mM MgCl2, 10 mM HEPES, 0.1% bovine serum albumin, 0.2 mM 3-Isobutyl-1-methylxanthine (IBMX, Biomol Research Labs)) and forskolin is added. Various dilutions of the compounds of the invention are prepared in assay buffer and 5 μL of the dilutions are added to the cultured cells and incubated for 15 minutes at 37° C. […] 10 μL of lysis buffer (HRTF cAMP kit, Cisbio) containing cAMP detection and visualization antibodies are added and the assay is allowed incubate for 1-24 hours at room temperature. The intracellular cAMP concentrations are then measured using a commercially available detection kit (for example, the cAMP HTRF kit, Cisbio). The measured intracellular cAMP concentrations are plotted vs. the concentration of the compounds of the invention and the EC50 of the compounds are calculated using standard methods.
What is called EC50 is the concentration giving half of the maximal effect. Take `COc1cccc(-c2cc3c(cc2C)N=CN(c2cc(C)cc(Cl)c2)C3C(=O)N(C)C[C@@H]2CCCN2)c1C#N` (stereo partly drawn) [Compound 2-30, 3-(3-chloro-5-methylphenyl)-6-(2-cyano-3-methoxyphenyl)-N,7-dimethyl-N-[(2S)-pyrrolidin-2-ylmethyl]-3,4-dihydroquinazoline-4-carboxamide]: the 50% effective concentration (EC50) was below 100 nM.

Consider `Cc1cc(Cl)cc(N2C=Nc3cc(C)c(-c4cc(O)cc(C#N)c4)cc3C2C(=O)N(C)C[C@@H]2CCCN2)c1` (stereo partly drawn) [Compound 1-48, 3-(3-chloro-5-methylphenyl)-6-(3-cyano-5-hydroxyphenyl)-N,7-dimethyl-N-[(2S)-pyrrolidin-2-ylmethyl]-3,4-dihydroquinazoline-4-carboxamide], for which the EC50 was below 100 nM.

For the compound `CC[C@H](N)CN(C)C(=O)C1c2cc(-c3cc(O)cc(F)c3)c(Cl)cc2N=CN1c1cc(C)cc(C)c1` (stereo partly drawn) [Compound 1-6, N-[(2S)-2-aminobutyl]-7-chloro-3-(3,5-dimethylphenyl)-6-(3-fluoro-5-hydroxyphenyl)-N-methyl-3,4-dihydroquinazoline-4-carboxamide], the EC50 was below 100 nM.

Take `CC[C@H](N)CN(C)C(=O)C1c2cc(-c3cc(O)ccc3C)c(Cl)cc2N=CN1c1cc(C)cc(C)c1` (stereo partly drawn) [Compound 1-8, N-[(2S)-2-aminobutyl]-7-chloro-3-(3,5-dimethylphenyl)-6-(5-hydroxy-2-methylphenyl)-N-methyl-3,4-dihydroquinazoline-4-carboxamide]: the half-maximal effective concentration (EC50) is below 100 nM.

Regarding `CCN(C[C@@H]1CCCN1)C(=O)C1c2cc(-c3cccc(O)c3)c(C)cc2N=CN1c1cc(C)cc(Cl)c1` (stereo partly drawn) [Compound 1-31, 3-(3-chloro-5-methylphenyl)-N-ethyl-6-(3-hydroxyphenyl)-7-methyl-N-[(2S)-pyrrolidin-2-ylmethyl]-3,4-dihydroquinazoline-4-carboxamide], the 50% effective concentration (EC50) was below 100 nM.

`Cc1cc(Cl)cc(N2C=Nc3cc(C)c(-c4cc(F)cc(C#N)c4)cc3C2C(=O)N(C)C[C@@H]2CCCN2)c1` (stereo partly drawn) [Compound 1-38, 3-(3-chloro-5-methylphenyl)-6-(3-cyano-5-fluorophenyl)-N,7-dimethyl-N-[(2S)-pyrrolidin-2-ylmethyl]-3,4-dihydroquinazoline-4-carboxamide]: the concentration giving a half-maximal response (EC50) was below 100 nM.

Take `Cc1cc(Cl)cc(N2C=Nc3cc(C)c(-c4cccc(C#N)c4F)cc3C2C(=O)N(C)C[C@@H]2CCCN2)c1` (stereo partly drawn) [Compound 1-41, 3-(3-chloro-5-methylphenyl)-6-(3-cyano-2-fluorophenyl)-N,7-dimethyl-N-[(2S)-pyrrolidin-2-ylmethyl]-3,4-dihydroquinazoline-4-carboxamide]: the EC50 was below 100 nM.

For the compound `Cc1cc(Cl)cc(N2C=Nc3cc(C)c(-c4cccc(-c5nnn[nH]5)c4)cc3C2C(=O)N(C)C[C@@H]2CCCN2)c1` (stereo partly drawn) [Compound 1-47, 3-(3-chloro-5-methylphenyl)-N,7-dimethyl-N-[(2S)-pyrrolidin-2-ylmethyl]-6-[3-(1H-1,2,3,4-tetrazol-5-yl)phenyl]-3,4-dihydroquinazoline-4-carboxamide], the EC50 is below 100 nM.

For `Cc1cc(Cl)cc(N2C=Nc3cc(C)c(-c4ccc(O)c(F)c4)cc3C2C(=O)N(C)C[C@@H]2CCCN2)c1` (stereo partly drawn) [Compound 2-32, 3-(3-chloro-5-methylphenyl)-6-(3-fluoro-4-hydroxyphenyl)-N,7-dimethyl-N-[(2S)-pyrrolidin-2-ylmethyl]-3,4-dihydroquinazoline-4-carboxamide], the EC50 is below 100 nM.

In the case of `Cc1cc(Cl)cc(N2C=Nc3ccc(-c4cc(O)ccc4Cl)cc3C2C(=O)N(C)C[C@@H]2CCCN2)c1` (stereo partly drawn) [Compound 1-30, 6-(2-chloro-5-hydroxyphenyl)-3-(3-chloro-5-methylphenyl)-N-methyl-N-[(2S)-pyrrolidin-2-ylmethyl]-3,4-dihydroquinazoline-4-carboxamide], the EC50 was below 100 nM.

Turning to `COc1ccc(Cl)c(-c2cc3c(cc2C)N=CN(c2cc(C)cc(Cl)c2)C3C(=O)N(C)C[C@@H]2CCCN2)c1` (stereo partly drawn) [Compound 2-3, 6-(2-chloro-5-methoxyphenyl)-3-(3-chloro-5-methylphenyl)-N,7-dimethyl-N-[(2S)-pyrrolidin-2-ylmethyl]-3,4-dihydroquinazoline-4-carboxamide], the EC50 is below 100 nM.

For the compound `COc1cc(C)cc(-c2cc3c(cc2C)N=CN(c2cc(C)cc(Cl)c2)C3C(=O)N(C)C[C@@H]2CCCN2)c1` (stereo partly drawn) [Compound 2-15, 3-(3-chloro-5-methylphenyl)-6-(3-methoxy-5-methylphenyl)-N,7-dimethyl-N-[(2S)-pyrrolidin-2-ylmethyl]-3,4-dihydroquinazoline-4-carboxamide], the EC50 is below 100 nM.

Turning to `Cc1cc(Cl)cc(N2C=Nc3cc(C)c(-c4ccnc(C#N)c4)cc3C2C(=O)N(C)C[C@@H]2CCCN2)c1` (stereo partly drawn) [Compound 2-27, 3-(3-chloro-5-methylphenyl)-6-(2-cyanopyridin-4-yl)-N,7-dimethyl-N-[(2S)-pyrrolidin-2-ylmethyl]-3,4-dihydroquinazoline-4-carboxamide], the EC50 is 100 to 1000 nM.

With `Cc1cc(Cl)cc(N2C=Nc3cc(C)c(-c4cc(C#N)ccc4Cl)cc3C2C(=O)N(C)C[C@@H]2CCCN2)c1` (stereo partly drawn) [Compound 1-37, 6-(2-chloro-5-cyanophenyl)-3-(3-chloro-5-methylphenyl)-N,7-dimethyl-N-[(2S)-pyrrolidin-2-ylmethyl]-3,4-dihydroquinazoline-4-carboxamide], the EC50 was below 100 nM.

As to `Cc1cc(Cl)cc(N2C=Nc3ccc(-c4cccc(O)c4Cl)cc3C2C(=O)N(C)C[C@@H]2CCCN2)c1` (stereo partly drawn) [Compound 1-29, 6-(2-chloro-3-hydroxyphenyl)-3-(3-chloro-5-methylphenyl)-N-methyl-N-[(2S)-pyrrolidin-2-ylmethyl]-3,4-dihydroquinazoline-4-carboxamide], the EC50 was below 100 nM.

Take `Cc1cc(Cl)cc(N2C=Nc3ccc(-c4cccc(O)c4)cc3C2C(=O)N(C)C[C@@H]2CCCN2)c1` (stereo partly drawn) [Compound 1-45, 3-(3-chloro-5-methylphenyl)-6-(3-hydroxyphenyl)-N-methyl-N-[(2S)-pyrrolidin-2-ylmethyl]-3,4-dihydroquinazoline-4-carboxamide]: the EC50 is below 100 nM.

With `CC[C@H](N)CN(C)C(=O)C1c2cc(-c3cc(O)ccc3F)c(C)cc2N=CN1c1cc(C)cc(C)c1` (stereo partly drawn) [Compound 1-10, N-[(2S)-2-aminobutyl]-3-(3,5-dimethylphenyl)-6-(2-fluoro-5-hydroxyphenyl)-N,7-dimethyl-3,4-dihydroquinazoline-4-carboxamide], the EC50 is below 100 nM.

As to `CC[C@H](N)CN(C)C(=O)C1c2cc(-c3cccc(O)c3)c(C)cc2N=CN1c1cc(C)cc(C)c1` (stereo partly drawn) [Compound 1-9, N-[(2S)-2-aminobutyl]-3-(3,5-dimethylphenyl)-6-(3-hydroxyphenyl)-N,7-dimethyl-3,4-dihydroquinazoline-4-carboxamide], the EC50 was below 100 nM.

For the compound `CC[C@H](N)CN(C)C(=O)C1c2cc(-c3cccc(O)c3F)c(C)cc2N=CN1c1cc(C)cc(C)c1` (stereo partly drawn) [Compound 1-11, N-[(2S)-2-aminobutyl]-3-(3,5-dimethylphenyl)-6-(2-fluoro-3-hydroxyphenyl)-N,7-dimethyl-3,4-dihydroquinazoline-4-carboxamide], the EC50 was below 100 nM.

As to `Cc1cc(Cl)cc(N2C=Nc3cc(C)c(-c4cc(O)ccc4C#N)cc3C2C(=O)N(C)C[C@@H]2CCCN2)c1` (stereo partly drawn) [Compound 1-21, 3-(3-chloro-5-methylphenyl)-6-(2-cyano-5-hydroxyphenyl)-N,7-dimethyl-N-[(2S)-pyrrolidin-2-ylmethyl]-3,4-dihydroquinazoline-4-carboxamide], the half-maximal effective concentration (EC50) is below 100 nM.

For the compound `Cc1cc(Cl)cc(N2C=Nc3cc(C)c(-c4cc(O)cc(F)c4)cc3C2C(=O)N(C)C[C@@H]2CCCN2)c1` (stereo partly drawn) [Compound 2-21, 3-(3-chloro-5-methylphenyl)-6-(3-fluoro-5-hydroxyphenyl)-N,7-dimethyl-N-[(2S)-pyrrolidin-2-ylmethyl]-3,4-dihydroquinazoline-4-carboxamide], the EC50 is below 100 nM.

On to `Cc1cc(Cl)cc(N2C=Nc3cc(C)c(-c4cc(C#N)cc(C(F)(F)F)c4)cc3C2C(=O)N(C)C[C@@H]2CCCN2)c1` (stereo partly drawn) [Compound 1-42, 3-(3-chloro-5-methylphenyl)-6-[3-cyano-5-(trifluoromethyl)phenyl]-N,7-dimethyl-N-[(2S)-pyrrolidin-2-ylmethyl]-3,4-dihydroquinazoline-4-carboxamide], for which the EC50 was below 100 nM.

Turning to `CC1=Nc2ccc(-c3cc(O)ccc3Cl)cc2C(C(=O)NC[C@@H]2CCCN2)N1c1cc(C)cc(Cl)c1` (stereo partly drawn) [Compound 1-28, 6-(2-chloro-5-hydroxyphenyl)-3-(3-chloro-5-methylphenyl)-2-methyl-N-[(2S)-pyrrolidin-2-ylmethyl]-3,4-dihydroquinazoline-4-carboxamide], the EC50 was below 100 nM.
